Laboratory results as given in patent US10273242B2, “Compound inhibiting activities of BTK and/or JAK3 kinases” (BEIJING HANMI PHARMACEUTICAL CO., LTD., priority 2013, dated 2019).

Assays:
[1] = test system: p-PLCγ2 (pY1217) in Ramos cells; experiment: p-PLCγ2 inhibition assay in Ramos cells (Western blot); assay type: cell-based; conditions: compound 1 hour, anti-human IgM stimulation
Protocol: Ramos cells (purchased from the Beijing Union Medical College) with starvation culture for 1 hour were treated with the compounds of the present invention for 1 hour, and then rinsed with PBS buffer (pH 7.2) to remove the compounds. Then they were resuspended in 100 μL of serum-free culture medium containing 1 μM of anti-human IgM F(ab′)2 (purchased from SBA company, No.: 2022-01) and stimulated on ice for 10 minutes. The cells were rinsed with PBS buffer (pH 7.2) to remove IgM and resuspended in 100 μL of protein lysis buffer (purchased from Sigma, No.: C2978), and then prepared and quantified the protein sample. 100 μg of the protein sample were taken and loaded on polyacrylamide gels for electrophoresis under 200V of voltage. After electrophoresis, protein blots were transferred to a PVDF membrane. […] The protein expression was detected by coloration using ECL substrate (purchased from GE, No.: RPN2109).

DBA/1J mice = experiment: Type II collagen-induced arthritis (CIA) model in DBA/1J mice; assay type: in vivo; conditions: 3 mg/kg and 10 mg/kg orally once a day for 14 days
Excerpt: The CIA model is a widely-used animal model in the study of drugs for the treatment of rheumatoid arthritis in human. The experimental animals used in this experiment are DBA/1J mice (male, 6 to 8 weeks of age, purchased from Shanghai Silaike Laboratroy Animal Co., Ltd., China). Mice were housed in an IVC system.
In order to induce the mice CIA model, a bovine type II collagen (CII) (purchased from Chondrex company, No.: 20022) solution was emulsified with the same volume of complete Freund's adjuvant (CFA) (purchased from Sigma-Aldrich, No.: F5881) using an electronic homogenizer to prepare an emulsion. Then, 70 μL of the prepared emulsion was intradermally injected into the base of the tail of the mice as a primary immunization. Three weeks after the primary immunization, one booster immunization was carried out. […] According to the following criteria, Mice were evaluated for the severity of arthritis using an established scoring system ranging from 0 to 4 (0 score: no evidence of edema or swelling; 1 score: mild edema and redness confined to the ankle joint or tarsal; 2 scores: mild edema and redness, from the ankle joint to the tarsal; 3 scores: moderate edema and redness, from the ankle joint to the metatarsal; and 4 scores: severe edema and redness, from the ankle to the whole instep and toes, or ankylosis of the ankle or wrist joints). […]

C=CC(=O)N1CC[C@@H](Nc2nc(Nc3cc(C)ns3)nc3ccsc23)C1 [Example 132, (R)-1-(3-((2-((3-methyl-isothiazol-5-yl)amino)thieno[3,2-d]pyrimidin-4-yl)amino)pyrrolidin-1-yl)prop-2-en-1-one] was tested, and the “inhibition of expression of p-PLCγ2” value [1] was “significantly inhibit the expressions of p-BTK and p-PLCγ2 in Ramos cells in a dose-dependent manner” and the “therapeutic effect on arthritis (arthritis severity scores)” value (DBA/1J mice) was “good therapeutic effect on arthritis in the CIA model at the designed doses in a dose dependent manner”.
